What was measured:
Assay type in all cases: cell-based, human
[1] = test system: MDA-MB-231 cells; experiment: CyQUANT cell number after 2 h exposure and wash-out; conditions: 50 μM, 2 h exposure then wash-out
Experimental: FIG. 19A-E. Combination of cisplatin and mdivi-1 produces synergistic pro-apoptotic effect in multidrug resistant tumor cells. (A) MDA-MB-231 cells were treated with increasing doses of mdivi-1 for 72 h. The survival was assessed by MTS assay. […] (B) MDA-MB-231 cells were treated with increasing doses of cisplatin alone or the combination with 20 μM or 50 μM of mdivi-1 for 72 h. The survival was assessed by MTS assay. (C) MDA-MB-231 cells were exposed to cisplatin and mdivi-1 alone or combination at their IC50 or 0.5 fold of their IC50. The combination index (CI) and the normalized isobologram were generated using CompuSyn. (D) MDA-MB-231 cells were treated with DMSO, 50 μM cisplatin alone, 50 μM mdivi-1 alone, or the combination for 2 h. The compounds were then washed out and the cell number was determined every 24 h by CyQuant assay. (E) MDA-MB-231 cells were treated with agents alone, or the combination at a ratio of 1:1 for 20 h. The number of apoptotic cells was determined with antibody recognizing cleaved caspase-3 followed by flow cytometry.
To explore this effect further, MDA-MB-231 cells were treated with DMSO as a vehicle control, 50 μM of cisplatin, 50 μM of mdivi-1, or 50 μM of cisplatin plus 50 μM of mdivi-1 for 2 hours. The cells were then washed with growth media and plated in black 96-well plates. Survivals were measured by CyQUANT assay. Data represent mean±SD. n=4 wells. […]

[2] = test system: MDA-MB-231 cells; experiment: Western blot of DNA damage response proteins; conditions: 4 h; mdivi-1 alone at 50 μM
Experimental: (§1) FIG. 22A-E. Mdivi-1 inhibits DNA replication and its combination with cisplatin enhances replication stress leading to efficient G2 phase arrest of the cell cycle. (A) MDA-MB-231 cells were treated with cisplatin alone, mdivi-1 alone or the combination at the indicated concentrations for 4 h. Western blot was then performed to detect the phosphorylation status of key proteins involved in DNA damage response. (B) MDA-MB-231 cells were treated with 20 μM cisplatin alone, 20 μM mdivi-1 alone or the combination for 20 h. The distribution of cell cycle was determined by triple staining of the cells with anti-BrdU, anti-phospho-Histone H3 and PI. (C) Quantification of the distribution of cell cycle analyzed in panel B. (D) The effect of mdivi-1 on the rate of DNA synthesis was analyzed by a histogram, which was generated from the data obtained in panel B, showing the changes of BrdU intensity. (E) Cells were treated as described in B and γ-H2AX was analyzed by western blot.
Whole cell lysate was prepared by lysing cells in cell lysis buffer (Cell signaling technology) containing complete protease inhibitor (Roche). Cell lysates were then cleared at 15,000 rpm for 15 min at 4° C. […] The protein content was quantified using a Bio-Rad Protein Assay kit (Bio-Rad Laboratories, Hercules, Calif.). […]

[3] = test system: MDA-MB-231 cells; experiment: Cell cycle analysis by anti-BrdU, anti-phospho-Histone H3 and PI staining; conditions: 20 μM, 20 h
Experimental: as §1
Cells were treated with 20 μM cisplatin, 20 μM mdivi-1, or the combination of 20 μM cisplatin and 20 μM mdivi-1 for 20 h. S phase cells were then pulse-labeled with 10 μM BrdU for 30 min at 37° C. Cells were trypsinized, fixed in 70% ice-cold ethanol, and incubated overnight at 4° C. DNA was denatured in 2 N HCl containing 0.5% Triton X-100, and neutralized with 0.1 M Na2B4O7. Cells were then stained with FITC-labeled anti-BrdU antibody (BD Biosciences, San Jose, Calif.). To determine the number of cells in mitosis, cells were then stained with Alexa Fluor 647-conjugated phospho-Histone H3 (Ser 10) antibody (Cell signaling technology). To measure DNA content, cells were incubated in PI solution (PBS containing 50 μg/ml of PI and 40 μg/ml of RNase A) for 30 min at room temperature. Samples were analyzed on a CyAn ADP Analyzer (Beckman Coulter, Brea, Calif.). Data were analyzed using Summit software.

[4] = test system: MDA-MB-231 cells; experiment: Chromosome and mitotic spindle morphology in mitotic cells; conditions: 7 hours
Experimental: The effect of Drp1 inhibition of chromosome stability was then evaluated. MDA-MB-231 cells that have been engineered to stably express a mitochondrial marker protein pAcGFP-1-mito were treated with mdivi-1 for 7 hours. Mitotic cells were selected for examining the morphology of their chromosomes and mitotic spindles. Chromosomes were visualized by DAPI, and mitotic spindles were visualized by staining cells with Alex-Fluor 555-conjugated anti-β tubulin antibody. The results are shown in FIG. 11; two representative mitotic figures are shown.

| Compound | effect on cell growth / survival after short exposure [1] | phosphorylation / activation of Chk1 [2] | BrdU incorporation into DNA [3] | G2 phase cells [3] [%] | chromosome stability during mitosis [4] | S phase cells [3] [%] |
| --- | --- | --- | --- | --- | --- | --- |
| N.N.[Cl][Pt][Cl] [cisplatin] | only slightly slowed down cell growth | phosphorylated | abolished the uptake of BrdU | 18.97 | – | – |
| COc1cc(-n2c(=S)[nH]c3ccccc3c2=O)c(Cl)cc1Cl [mdivi-1] | reversible | induced activation of Chk1 | substantially decreased | – | chromosomal instability | 44.23 |

From patent US9492450B2, “Inhibition of dynamin related protein 1 to promote cell death” (University of Pittsburgh—of the Commonwealth System of …, priority 2011, dated 2016)
